# Data: PMC4917951, “Designing, construction and characterization of genetically encoded FRET-based nanosensor for real time monitoring of lysine flux in living cells” (Journal of Nanobiotechnology, 2016)
# Columns and labels:
# [1] = system: S. cerevisiae/URA3 strain BY4742 expressing FLIPK; assay: Confocal FRET imaging of lysine uptake in FLIPK-expressing yeast cells; assay type: cell-based
# Method: For expression of FLIPK, S. cerevisiae/URA3 strain BY4742 was used as the eukaryotic host system. The yeast cells were grown and transformed by pYES-DEST-CFP-LAO-YFP vector in which the expression of CFP-LAO-YFP gene was controlled by GAL1 promoter. The transformed yeast cells were grown for 3–5 days in Synthetic Defined (SD)-growth and 1 % galactose as inducer. Imaging of expressed yeast cells were performed on confocal microscope (Leica DMRE) equipped with a confocal head TCS-SPE (Leica, Wetzlar, Germany). The yeast cells were fixed on glass slides by using medical adhesive rinsed with the growth medium and covered by a cover slip. To measure the lysine in yeast cells, dual emission intensity ratio was recorded by using LAS-AF software (Leica, Wetzlar, Germany) with 436 nm/20 nm excitation, two emission filters i.e. 480 nm/40 nm for CFP and 535/30 nm for YFP. For recording the data, FRET sensitized emission tool without background subtraction of the Leica confocal software. The data was further processed by using Adobe Photoshop. Images of single cell and multiple cells were captured by selecting the region of interest (ROI). Similar procedure was followed for the imaging of expressed bacterial cells.
# [2] = system: E. coli BL21 (DE3) cells expressing FLIPK; assay: In vivo FRET measurement in FLIPK-expressing bacterial cell suspension; assay type: cell-based; settings: for change in FRET ratio of bacterial cell suspension (in vivo specificity): incubation with amino acids for 45 min
# Method: In vivo analysis was performed by following the earlier protocols. […] Cultures were incubated in Luria Bertoni broth in baffled Erlenmeyer flasks for 48 h in the dark at 20 °C temperature in shaker incubator and then stored at 4 °C for overnight to ensure the proper folding of the fluorescent proteins. Then starved of nitrogen in M9 medium at 37 °C for 2 h and adjusted to OD600 3.5 and kept in 20 mM PBS buffer solution at pH 7.5. Then 180 µl of cells were dispended in the wells of microplate. 20 μl of 10 mM lysine in nitrogen starved medium grown cells were added and the fluorophores emissions were recorded for 45 min. For monitoring the accumulation rates, the injection module of microplate reader was used. Similar procedure was followed with other amino acids (arginine, ornithine, histidine) to see the specificity of FLIPK.
# [3] = molecular target: lysine binding periplasmic protein (LAO); design: method as in PMID 1400387; settings: read-out: Kd for lysine by equilibrium dialysis; cited from earlier work
# [4] = molecular target: T1, FLIPK sensor protein (CFP-LAO-YFP) (Salmonella typhimurium, UniProt P02911); assay: In vitro ligand specificity of FLIPK (FRET ratio with amino acids); assay type: binding, Salmonella enterica serovar typhimurium LT2; settings: amino acids at 1 and 10 mM, purified FLIPK
# T1 construct: The first 22 amino acids (signal peptides) were removed by the help of a SignalP 4.1 server; (His)6 tag (from pRSET-B) (N); made in house; host or cells: E. coli BL21 (DE3), pRSET-B vector
# Method: (§1) Specificity of the sensor protein was measured by using five amino acids, arginine, leucine, lysine, ornithine and histidine at three different concentrations i.e. 0, 1.0 and 10 mM, each. FRET measurement was carried out by using a microplate reader. The excitation filter/slit used was 430 nm/20 nm and emission filters/slits for CFP and YFP were 485 nm/20 nm and 535 nm/25 nm, respectively. 180 µl of diluted sensor protein and 20 µl of substrate were taken in different well. Affinity of sensor protein was monitored by using different concentrations of lysine. All analysis was performed in 20 mM PBS buffer (pH 7.5).
# [5] = molecular target: T2, FLIPK-142µ (Salmonella enterica, UniProt P02911, Y36A); assay: In vitro FRET titration of purified CFP-LAO-YFP sensor with lysine in 20 mM PBS buffer pH 7.5, YFP/CFP (535/485 nm) emission ratio in a microplate reader, fitted to a simple binding isotherm.; settings: n = 3
# T2 construct: gene argT; LAO without first 22 residues (signal peptide), CFP at N-terminus and YFP at C-terminus, N-terminal (His)6 tag, pRSET-B
# T2 sequence (P02911 23-260 Y36A): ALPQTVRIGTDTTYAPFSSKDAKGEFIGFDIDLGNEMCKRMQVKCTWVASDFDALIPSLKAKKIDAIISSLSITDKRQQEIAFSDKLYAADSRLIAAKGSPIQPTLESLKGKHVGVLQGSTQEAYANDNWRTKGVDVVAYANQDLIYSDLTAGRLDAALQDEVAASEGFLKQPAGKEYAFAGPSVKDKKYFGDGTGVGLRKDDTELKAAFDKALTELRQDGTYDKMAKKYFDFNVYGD
# Method: as §1
# (§2) To determine the Kd of the FLIPK sensors, sensor protein was mixed with different concentrations of lysine in 20 mM PBS buffer (pH 7.5) and YFP/CFP ratio was recorded. By using the ratio change on ligand binding, binding constants (Kd) were determined by fitting ligand titration curve in a simple binding isotherm: S=(r-rapo)/(rsat-rapo)=L/Kd+L , where S is saturation; [L] is ligand concentration; r is ratio; rapo is ratio in the absence of ligand and rsat is ratio at saturation with ligand. All analyses were carried out with three independent protein preparations. FRET was used to characterize the sensor protein with various parameters. The FRET ratio was determined as fluorescence intensity at 535 nm (YFP) divided by fluorescence intensity at 485 nm (CFP).
# [6] = molecular target: T3, FLIPK-306µ (Salmonella enterica, UniProt P02911, R99L); assay: as above; settings: n = 3
# T3 construct: gene argT; LAO without first 22 residues (signal peptide), CFP at N-terminus and YFP at C-terminus, N-terminal (His)6 tag, pRSET-B
# T3 sequence (P02911 23-260 R99L): T2 sequence (P02911 23-260 Y36A)
# Method: as §1, §2
# [7] = molecular target: T4, FLIPK-30µ (Salmonella enterica, UniProt P02911, S94A); assay: as above; settings: n = 3
# T4 construct: gene argT; LAO without first 22 residues (signal peptide), CFP at N-terminus and YFP at C-terminus, N-terminal (His)6 tag, pRSET-B
# T4 sequence (P02911 23-260 S94A): T2 sequence (P02911 23-260 Y36A)
# Method: as §1, §2
# [8] = molecular target: T5, FLIPK-14 µ (Salmonella enterica, UniProt P02911, F74A); assay: as above; settings: n = 3
# T5 construct: gene argT; LAO without first 22 residues (signal peptide), CFP at N-terminus and YFP at C-terminus, N-terminal (His)6 tag, pRSET-B
# T5 sequence (P02911 23-260 F74A): T2 sequence (P02911 23-260 Y36A)
# Method: as §1, §2
# [9] = molecular target: T6, FLIPK-97µ (FLIPK, WT) (Salmonella enterica, UniProt P02911); assay: as above; settings: n = 3
# T6 construct: gene argT; LAO without first 22 residues (signal peptide), CFP at N-terminus and YFP at C-terminus, N-terminal (His)6 tag, pRSET-B
# Method: as §1, §2
# [10] = molecular target: T7, FLIPK-2 m (Salmonella enterica, UniProt P02911, D183I); assay: as above; settings: n = 3
# T7 construct: gene argT; LAO without first 22 residues (signal peptide), CFP at N-terminus and YFP at C-terminus, N-terminal (His)6 tag, pRSET-B
# T7 sequence (P02911 23-260 D183I): T2 sequence (P02911 23-260 Y36A)
# Method: as §1, §2
smiles,measurement,setting,value
NCCCC[C@H](N)C(=O)O [lysine],increase of 535 nm/485 nm emission intensity ratio,"[1]; 100 mM extracellular lysine, single yeast cell",2.0
same,time up to which 535 nm/485 nm ratio increased before saturation,[1]; after addition of lysine,255 s
same,time after which FRET ratio increased distinctly,[2]; 10 mM lysine added externally,5 min
same,time at which FRET ratio of the cell suspensions saturated,"[2]; 10 mM lysine added externally, 20 mM PBS buffer",45 min
same,time within which uptake of lysine saturated,[2]; at 10 mM,40 to 45 min
same,change in FRET ratio of bacterial cell suspension (in vivo specificity),[2],major change
same,Kd,[3],0.015 µM
same,change in FRET ratio of FLIPK (ligand specificity),[4],significant increase in the FRET ratio
NCCC[C@H](N)C(=O)O [ornithine],change in FRET ratio of bacterial cell suspension (in vivo specificity),[2],did not change the FRET ratio
same,change in FRET ratio of FLIPK (ligand specificity),[4],non-significant change in FRET ratio
CC(C)C[C@H](N)C(=O)O [leucine],change in FRET ratio of FLIPK (ligand specificity),[4],non-significant change in FRET ratio
N[C@@H](Cc1c[nH]cn1)C(=O)O [histidine],change in FRET ratio of bacterial cell suspension (in vivo specificity),[2],did not change the FRET ratio
same,change in FRET ratio of FLIPK (ligand specificity),[4],non-significant change in FRET ratio
N=C(N)NCCC[C@H](N)C(=O)O [arginine],change in FRET ratio of bacterial cell suspension (in vivo specificity),[2],did not change the FRET ratio
same,change in FRET ratio of FLIPK (ligand specificity),[4],non-significant change in FRET ratio
"NCCCC[C@H](N)C(=O)O [lysine, L-lysine]",Kd,[5],142 µM
same,Kd,[6],306 µM
same,Kd,[7],30 µM
same,Kd,[8],14 µM
same,Kd,[9],97 µM
same,Kd,[10],2000 µM
